Assay results reported in ChEMBL document CHEMBL4011590, “Structure-activity relationship studies on 3,5-dinitrophenyl tetrazoles as antitubercular agents” (Eur J Med Chem, 2017).

How the values were obtained:
[1] = test system: Pichia kudriavzevii; test: Antifungal activity against Candida krusei E28 after 24 hrs by broth microdilution method; format: functional; details: E28, 24 h
[2] = test system: Staphylococcus aureus; test: Antibacterial activity against methicillin-resistant Staphylococcus aureus HK5996/08 after 24 hrs by broth microdilution method; format: functional; details: HK5996/08, 24 h
[3] = test system: Staphylococcus aureus; test: Antibacterial activity against Staphylococcus aureus ATCC 6538 after 48 hrs by broth microdilution method; format: functional; details: ATCC 6538, 48 h
[4] = test system: Trichophyton mentagrophytes; test: Antifungal activity against Trichophyton mentagrophytes 445 after 72 hrs by broth microdilution method; format: functional; details: Trichophyton mentagrophytes, 445, 72 h
[5] = test system: Lichtheimia corymbifera; test: Antifungal activity against Absidia corymbifera 272 after 48 hrs by broth microdilution method; format: functional; details: Lichtheimia corymbifera, 272, 48 h
[6] = test system: Mycobacterium avium; test: Antimycobacterial activity against Mycobacterium avium CNCTC My 330/80 after 14 days by micromethod; format: functional; details: CNCTC My 330/80, 336 h
[7] = test system: Mycobacterium kansasii; test: Antimycobacterial activity against Mycobacterium kansasii CNCTC My 235/80 after 21 days by micromethod; format: functional; details: CNCTC My 235/80, 504 h
[8] = test system: Mycobacterium tuberculosis; test: Antimycobacterial activity against Mycobacterium tuberculosis H37Rv CNCTC My 331/88 after 14 days by micromethod; format: functional; details: H37Rv CNCTC My 331/88, 336 h
[9] = test system: Trichosporon asahii; test: Antifungal activity against Trichosporon asahii 1188 after 48 hrs by broth microdilution method; format: functional; details: Trichosporon asahii, 1188, 48 h
[10] = test system: Nakaseomyces glabratus; test: Antifungal activity against Candida glabrata 20/I after 48 hrs by broth microdilution method; format: functional
[11] = test system: Staphylococcus aureus; test: Antibacterial activity against Staphylococcus aureus ATCC 6538 after 24 hrs by broth microdilution method; format: functional; details: ATCC 6538, 24 h
[12] = test system: Klebsiella pneumoniae; test: Antibacterial activity against Klebsiella pneumoniae HK11750/08 after 48 hrs by broth microdilution method; format: functional; details: HK11750/08, 48 h
[13] = test system: Nakaseomyces glabratus; test: Antifungal activity against Candida glabrata 20/I after 24 hrs by broth microdilution method; format: functional
[14] = test system: Klebsiella pneumoniae; test: Antibacterial activity against extended spectrum beta-lactamase producing Klebsiella pneumoniae HK14368/08 after 48 hrs by broth microdilution method; format: functional; details: HK14368/08, 48 h
[15] = test system: Trichophyton mentagrophytes; test: Antifungal activity against Trichophyton mentagrophytes 445 after 120 hrs by broth microdilution method; format: functional; details: Trichophyton mentagrophytes, 445, 120 h
[16] = test system: Candida tropicalis; test: Antifungal activity against Candida tropicalis 156 after 48 hrs by broth microdilution method; format: functional; details: Candida tropicalis, 156, 48 h
[17] = test system: Candida tropicalis; test: Antifungal activity against Candida tropicalis 156 after 24 hrs by broth microdilution method; format: functional; details: Candida tropicalis, 156, 24 h
[18] = test system: Mycobacterium kansasii; test: Antimycobacterial activity against Mycobacterium kansasii isolate 6509/96 after 21 days by micromethod; format: functional; details: isolate 6509/96, 504 h
[19] = test system: Enterococcus sp.; test: Antibacterial activity against Enterococcus sp. HK14365/08 after 48 hrs by broth microdilution method; format: functional; details: HK14365/08, 48 h
[20] = test system: Klebsiella pneumoniae; test: Antibacterial activity against Klebsiella pneumoniae HK11750/08 after 24 hrs by broth microdilution method; format: functional; details: HK11750/08, 24 h
[21] = test system: Mycobacterium kansasii; test: Antimycobacterial activity against Mycobacterium kansasii CNCTC My 235/80 after 7 days by micromethod; format: functional; details: CNCTC My 235/80, 168 h
[22] = test system: Candida albicans; test: Antifungal activity against Candida albicans ATCC 44859 after 24 hrs by broth microdilution method; format: functional; details: ATCC 44859, 24 h
[23] = test system: Staphylococcus aureus; test: Antibacterial activity against methicillin-resistant Staphylococcus aureus HK5996/08 after 48 hrs by broth microdilution method; format: functional; details: HK5996/08, 48 h
[24] = test system: Escherichia coli; test: Antibacterial activity against Escherichia coli ATCC 8739 after 48 hrs by broth microdilution method; format: functional; details: ATCC 8739, 48 h
[25] = test system: Candida albicans; test: Antifungal activity against Candida albicans ATCC 44859 after 48 hrs by broth microdilution method; format: functional; details: ATCC 44859, 48 h
[26] = test system: Pseudomonas aeruginosa; test: Antibacterial activity against Pseudomonas aeruginosa ATCC 9027 after 48 hrs by broth microdilution method; format: functional; details: ATCC 9027, 48 h
[27] = test system: Lichtheimia corymbifera; test: Antifungal activity against Absidia corymbifera 272 after 24 hrs by broth microdilution method; format: functional; details: Lichtheimia corymbifera, 272, 24 h
[28] = test system: Staphylococcus epidermidis; test: Antibacterial activity against Staphylococcus epidermidis HK6966/08 after 24 hrs by broth microdilution method; format: functional; details: HK6966/08, 24 h
[29] = test system: Mycobacterium tuberculosis; test: Antimycobacterial activity against Mycobacterium tuberculosis H37Rv CNCTC My 331/88 after 21 days by micromethod; format: functional; details: H37Rv CNCTC My 331/88, 504 h
[30] = test system: Klebsiella pneumoniae; test: Antibacterial activity against extended spectrum beta-lactamase producing Klebsiella pneumoniae HK14368/08 after 24 hrs by broth microdilution method; format: functional; details: HK14368/08, 24 h
[31] = test system: Enterococcus sp.; test: Antibacterial activity against Enterococcus sp. HK14365/08 after 24 hrs by broth microdilution method; format: functional; details: HK14365/08, 24 h
[32] = test system: Pichia kudriavzevii; test: Antifungal activity against Candida krusei E28 after 48 hrs by broth microdilution method; format: functional; details: E28, 48 h
[33] = test system: CHO-K1; test: Cytotoxicity against CHOK1 cells after 24 hrs by MTT assay; format: cell-based; details: Cricetulus griseus, CHO-K1, 24 h
[34] = test system: Trichosporon asahii; test: Antifungal activity against Trichosporon asahii 1188 after 24 hrs by broth microdilution method; format: functional; details: Trichosporon asahii, 1188, 24 h
[35] = test system: Mycobacterium kansasii; test: Antimycobacterial activity against Mycobacterium kansasii isolate 6509/96 after 14 days by micromethod; format: functional; details: isolate 6509/96, 336 h
[36] = test system: Aspergillus fumigatus; test: Antifungal activity against Aspergillus fumigatus 231 after 48 hrs by broth microdilution method; format: functional; details: Aspergillus fumigatus, 231, 48 h
[37] = test system: Escherichia coli; test: Antibacterial activity against Escherichia coli ATCC 8739 after 24 hrs by broth microdilution method; format: functional; details: ATCC 8739, 24 h
[38] = test system: Staphylococcus epidermidis; test: Antibacterial activity against Staphylococcus epidermidis HK6966/08 after 48 hrs by broth microdilution method; format: functional; details: HK6966/08, 48 h
[39] = test system: Mycobacterium avium; test: Antimycobacterial activity against Mycobacterium avium CNCTC My 330/80 after 21 days by micromethod; format: functional; details: CNCTC My 330/80, 504 h
[40] = test system: Mycobacterium kansasii; test: Antimycobacterial activity against Mycobacterium kansasii CNCTC My 235/80 after 14 days by micromethod; format: functional; details: CNCTC My 235/80, 336 h
[41] = test system: Mycobacterium kansasii; test: Antimycobacterial activity against Mycobacterium kansasii isolate 6509/96 after 7 days by micromethod; format: functional; details: isolate 6509/96, 168 h
[42] = test system: Pseudomonas aeruginosa; test: Antibacterial activity against Pseudomonas aeruginosa ATCC 9027 after 24 hrs by broth microdilution method; format: functional; details: ATCC 9027, 24 h
[43] = test system: Aspergillus fumigatus; test: Antifungal activity against Aspergillus fumigatus 231 after 24 hrs by broth microdilution method; format: functional; details: Aspergillus fumigatus, 231, 24 h

O=[N+]([O-])c1cc(-c2nnn(Cc3ccccc3F)n2)cc([N+](=O)[O-])c1
250 µM: MIC [28] | MIC [38]
2 µM: MIC99 [7] | MIC99 [18]
> 500 µM: MIC [1] | MIC [4] | MIC [5] | MIC [9] | MIC [10] | MIC [12] | MIC [13] | MIC [14] | MIC [15] | MIC [16] | MIC [17] | MIC [19] | MIC [20] | MIC [22] | MIC [24] | MIC [25] | MIC [26] | MIC [27] | MIC [30] | MIC [31] | MIC [32] | MIC [34] | MIC [36] | MIC [37] | MIC [42] | MIC [43]
500 µM: MIC [2] | MIC [3] | MIC [11] | MIC [23]
0.5 µM: MIC99 [8] | MIC99 [21] | MIC99 [29]
> 200 µM: IC50 [33]
16 µM: MIC99 [39]
1 µM: MIC99 [35] | MIC99 [40] | MIC99 [41]
8 µM: MIC99 [6]

O=[N+]([O-])c1cc(-c2nnnn2Cc2ccccc2)cc([N+](=O)[O-])c1
8 µM: MIC99 [7] | MIC99 [21] | MIC99 [40]
> 500 µM: MIC [36] | MIC [43]
32 µM: MIC99 [39]
250 µM: MIC [1] | MIC [9] | MIC [10] | MIC [13] | MIC [16] | MIC [17] | MIC [20] | MIC [30] | MIC [32] | MIC [34]
18 µM: IC50 [33]
16 µM: MIC99 [6]
62.5 µM: MIC [3] | MIC [11] | MIC [19] | MIC [22] | MIC [24] | MIC [25] | MIC [28] | MIC [31] | MIC [38]
31.2 µM: MIC [2]
4 µM: MIC99 [18] | MIC99 [35]
2 µM: MIC99 [8] | MIC99 [29] | MIC99 [41]
125 µM: MIC [12] | MIC [14] | MIC [37]
500 µM: MIC [4] | MIC [5] | MIC [15] | MIC [26] | MIC [27] | MIC [42]
15.6 µM: MIC [23]

O=[N+]([O-])c1cc(-c2nnn(Cc3cccc(Br)c3)n2)cc([N+](=O)[O-])c1
250 µM: MIC [3] | MIC [11] | MIC [28] | MIC [38]
29 µM: IC50 [33]
4 µM: MIC99 [6]
> 500 µM: MIC [1] | MIC [2] | MIC [4] | MIC [5] | MIC [9] | MIC [10] | MIC [12] | MIC [13] | MIC [14] | MIC [15] | MIC [16] | MIC [17] | MIC [19] | MIC [20] | MIC [22] | MIC [23] | MIC [24] | MIC [25] | MIC [26] | MIC [27] | MIC [30] | MIC [31] | MIC [32] | MIC [34] | MIC [36] | MIC [37] | MIC [42] | MIC [43]
2 µM: MIC99 [7] | MIC99 [18] | MIC99 [40]
0.5 µM: MIC99 [41]
0.25 µM: MIC99 [8] | MIC99 [29]
8 µM: MIC99 [39]
1 µM: MIC99 [21] | MIC99 [35]

O=[N+]([O-])c1cc(-c2nnn(CSc3nnnn3-c3ccc(Cl)cc3)n2)cc([N+](=O)[O-])c1
4 µM: MIC99 [39]
> 125 µM: MIC [1] | MIC [2] | MIC [3] | MIC [4] | MIC [5] | MIC [9] | MIC [10] | MIC [11] | MIC [12] | MIC [13] | MIC [14] | MIC [15] | MIC [16] | MIC [17] | MIC [19] | MIC [20] | MIC [22] | MIC [23] | MIC [24] | MIC [25] | MIC [26] | MIC [27] | MIC [30] | MIC [32] | MIC [34] | MIC [36] | MIC [37] | MIC [38] | MIC [42] | MIC [43]
1 µM: MIC99 [40]
0.03 µM: MIC99 [8] | MIC99 [29]
0.5 µM: MIC99 [18] | MIC99 [21] | MIC99 [35]
125 µM: MIC [28] | MIC [31]
14 µM: IC50 [33]
2 µM: MIC99 [6] | MIC99 [7]
0.25 µM: MIC99 [41]

O=[N+]([O-])c1cc(-c2nnn(CSc3nnnn3-c3ccc(Cl)c(Cl)c3)n2)cc([N+](=O)[O-])c1
125 µM: MIC99 [7]
0.03 µM: MIC99 [8] | MIC99 [29] | MIC99 [41]
> 125 µM: MIC [1] | MIC [2] | MIC [3] | MIC [4] | MIC [5] | MIC [9] | MIC [10] | MIC [11] | MIC [12] | MIC [13] | MIC [14] | MIC [15] | MIC [16] | MIC [17] | MIC [19] | MIC [20] | MIC [22] | MIC [23] | MIC [24] | MIC [25] | MIC [26] | MIC [27] | MIC [28] | MIC [30] | MIC [31] | MIC [32] | MIC [34] | MIC [36] | MIC [37] | MIC [38] | MIC [42] | MIC [43]
8 µM: MIC99 [39]
0.06 µM: MIC99 [18] | MIC99 [21] | MIC99 [35]
8.7 µM: IC50 [33]
0.125 µM: MIC99 [40]
4 µM: MIC99 [6]
